Paper PMC8682738, “Constrained peptides mimic a viral suppressor of RNA silencing” (Nucleic Acids Research, 2021)
Positions of bridges follow the written chain, without caps; N, C: chain ends. Non-standard residues stand in square brackets, D forms with d. Residues, ends and D or L forms follow the SMILES beside them. *: point of attachment. FITC = O=C1OC2(c3ccc(O)cc3Oc3cc(O)ccc32)c2ccc(NC(=S)*)cc21; S5 = C=CCCC[C@](C)(N)C(=O)O; AEEA = NCCOCCOCC(=O)O

Legend:
[1] = CD spectroscopy, secondary structure content; assay type: physicochemical; settings: fluorescein-labeled peptide 75 μM, 10 mM sodium phosphate pH 7.4, CDNN/PEPFIT; for Helix (α-helicity): unbound
Experimental: Spectra of fluorescein-labeled peptides were recorded with a J-715 circular dichroism spectrometer (Jasco) using a stoppered quartz cuvette (1 mm; Hellma). Peptide samples (c = 75 μM) were prepared in buffer: 10 mM disodium hydrogen phosphate, pH 7.4. For each sample, 10 CD spectra were measured between λ = 190 and 260 nm with continuous scan mode (10 mdeg sensitivity, 1.0 nm resolution, 1.0 nm bandwidth, 2 s integration time, 50 nm/min scan rate). Obtained spectra were averaged, then subtracted from a reference buffer spectrum and smoothed using a fast Fourier transform filter (FFT filter). The mean residue ellipticity (Θ) (deg·cm^2·dmol^−1·10^4) was calculated using Formula (2) and plotted against wavelength (λ) (nm). The ratio of secondary structure elements was calculated with CDNN using the PEPFIT set of reference spectra for secondary structure determination ([45],[46]):(2) where [Θ]m = mean molar ellipticity per peptide bond (degree·cm^2·dmol^−1·10^4), Θ = measured ellipticity (degree), d = optical path length (cm), cg = mass concentration (g·l^−1), MRW = mean residue weight, M = molar mass of the peptide (g·mol^−1) and N = number of peptide bonds.

proteinase K = proteinase K (Parengyodontium album, UniProt P06873); assay: Protease stability assay; assay type: in vitro ADME; settings: proteinase K 10 μg·ml^−1, fluorescein-labeled peptide 50 μM, 10 mM Tris pH 8.0, 150 mM NaCl, room temperature, HPLC absorbance 210 nm, exponential decay fit
Sequence of proteinase K (P06873 106-384): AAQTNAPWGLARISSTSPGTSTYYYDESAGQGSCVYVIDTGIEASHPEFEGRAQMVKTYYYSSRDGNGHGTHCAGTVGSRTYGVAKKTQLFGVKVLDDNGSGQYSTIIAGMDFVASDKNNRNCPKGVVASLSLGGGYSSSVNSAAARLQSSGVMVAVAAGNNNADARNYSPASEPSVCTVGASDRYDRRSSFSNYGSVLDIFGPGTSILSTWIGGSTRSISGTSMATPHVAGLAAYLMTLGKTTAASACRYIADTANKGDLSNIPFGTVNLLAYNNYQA
Experimental: Protease stability assays were performed in analogy to a previously published protocol ([47]). Stocks of fluorescein-labeled peptides were prepared to a concentration of 55.5 μM in assay buffer (10 mM Tris, pH 8.0, 150 mM NaCl) and separately stocks of proteinase K also in assay buffer (c = 100 μg·ml^−1). To begin each experiment, peptide and proteinase K stocks were mixed (final concentrations: c = 10 μg·ml^−1 proteinase K, c = 50 μM fluorescein-labeled peptide; final volume = 500 μl) and incubated at room temperature. At each time point, 50 μl of the reaction mixture was quenched by adding 100 μl of TFA/ACN/H2O (v/v/v, 1:49:49) and subsequently incubated for 2 min on ice. Following centrifugation (15 min, 13200 rpm, 4°C), samples (45 μl) were monitored by analytical HPLC using a linear gradient of 10–60% HPLC solvent B over 20 min. The amount of remaining peptide was quantified via absorbance at λ = 210 nm (intact peptide (%)) and plotted against time (t) (h). Half-life (t1/2) was calculated by fitting the data to an exponential decay using the software Prism 5.0 (GraphPad).

Compound	Random coil [1]	β-Sheet [1]	β-Turn [1]	Helix (α-helicity) [1]	Half-life (t1/2) (proteinase K)
CC(C)C[C@@H]1NC(=O)[C@@](C)(NC(=O)[C@H](CO)NC(=O)[C@H](CCCNC(=N)N)NC(=O)[C@H](CCCNC(=N)N)NC(=O)[C@H](CCC(N)=O)NC(=O)[C@H](CCC(=O)O)NC(=O)[C@H](CO)NC(=O)[C@@H]2CCCN2C(=O)[C@H](CO)NC(=O)[C@H](CCCCN)NC(=O)[C@H](Cc2c[nH]cn2)NC(=O)CNC(=O)[C@H](CCCNC(=N)N)NC(=O)[C@H](CCC(=O)O)NC(=O)[C@H](CCCCN)NC(=O)[C@H](CCCNC(=N)N)NC(=O)[C@H](CC(N)=O)NC(=O)[C@]2(C)CCCC=CCCC[C@](C)(NC(=O)[C@H](CCCNC(=N)N)NC(=O)[C@H](CCC(N)=O)NC(=O)[C@H](C)NC(=O)[C@H](CCC(N)=O)NC(=O)[C@H](CCCCN)NC(=O)[C@H](CCCCN)NC(=O)COCCOCCNC(=S)Nc3ccc4c(c3)C(=O)OC43c4ccc(O)cc4Oc4cc(O)ccc43)C(=O)N[C@@H](CCCNC(=N)N)C(=O)N[C@@H](Cc3c[nH]cn3)C(=O)N[C@@H](CCCCN)C(=O)N2)CCCC=CCCC[C@@](C)(C(=O)N[C@@H](CCCNC(=N)N)C(N)=O)NC(=O)[C@H](Cc2c[nH]cn2)NC(=O)[C@H](Cc2c[nH]c3ccccc23)NC1=O [C2] ({FITC-AEEA}-KKQAQR[S5]RHK[S5]NRKERGHKSPSEQRRS[S5]LWH[S5]R-NH2; staple 7-11, 28-32)	41.6%	3.3%	4.2%	61.8%	7.33 h
CC(C)C[C@H](NC(=O)[C@H](CCCCN)NC(=O)[C@H](Cc1c[nH]cn1)NC(=O)[C@H](CCCNC(=N)N)NC(=O)[C@H](CCCCN)NC(=O)[C@H](CCCNC(=N)N)NC(=O)[C@H](CCC(N)=O)NC(=O)[C@H](C)NC(=O)[C@H](CCC(N)=O)NC(=O)[C@H](CCCCN)NC(=O)[C@H](CCCCN)NC(=O)COCCOCCNC(=S)Nc1ccc2c(c1)C(=O)OC21c2ccc(O)cc2Oc2cc(O)ccc21)C(=O)N[C@@H](CC(N)=O)C(=O)N[C@@H](CCCNC(=N)N)C(=O)N[C@@H](CCCCN)C(=O)N[C@@H](CCC(=O)O)C(=O)N[C@@H](CCCNC(=N)N)C(=O)NCC(=O)N[C@@H](Cc1c[nH]cn1)C(=O)N[C@@H](CCCCN)C(=O)N[C@@H](CO)C(=O)N1CCC[C@H]1C(=O)N[C@@H](CO)C(=O)N[C@@H](CCC(=O)O)C(=O)N[C@@]1(C)CCCC=CCCC[C@@](C)(C(=O)N[C@@H](CC(C)C)C(=O)N[C@@H](Cc2c[nH]c3ccccc23)C(=O)N[C@@H](Cc2c[nH]cn2)C(=O)N[C@@H](C)C(=O)N[C@@H](CCCNC(=N)N)C(N)=O)NC(=O)[C@H](CO)NC(=O)[C@H](CCCNC(=N)N)NC(=O)[C@H](CCCNC(=N)N)NC1=O [B] ({FITC-AEEA}-KKQAQRKRHKLNRKERGHKSPSE[S5]RRS[S5]LWHAR-NH2; staple 24-28)	46.0%	6.8%	13.9%	30.5%	1.08 h
CC(C)C[C@H](NC(=O)[C@H](CCCCN)NC(=O)[C@H](Cc1c[nH]cn1)NC(=O)[C@H](CCCNC(=N)N)NC(=O)[C@H](CCCCN)NC(=O)[C@H](CCCNC(=N)N)NC(=O)[C@H](CCC(N)=O)NC(=O)[C@H](C)NC(=O)[C@H](CCC(N)=O)NC(=O)[C@H](CCCCN)NC(=O)[C@H](CCCCN)NC(=O)COCCOCCNC(=S)Nc1ccc2c(c1)C(=O)OC21c2ccc(O)cc2Oc2cc(O)ccc21)C(=O)N[C@@H](CC(N)=O)C(=O)N[C@@H](CCCNC(=N)N)C(=O)N[C@@H](CCCCN)C(=O)N[C@@H](CCC(=O)O)C(=O)N[C@@H](CCCNC(=N)N)C(=O)NCC(=O)N[C@@H](Cc1c[nH]cn1)C(=O)N[C@@H](CCCCN)C(=O)N[C@@H](CO)C(=O)N1CCC[C@H]1C(=O)N[C@@H](CO)C(=O)N[C@@H](CCC(=O)O)C(=O)N[C@@H](CCC(N)=O)C(=O)N[C@@H](CCCNC(=N)N)C(=O)N[C@@H](CCCNC(=N)N)C(=O)N[C@@H](CO)C(=O)N[C@@]1(C)CCCC=CCCC[C@@](C)(C(=O)N[C@@H](CCCNC(=N)N)C(N)=O)NC(=O)[C@H](Cc2c[nH]cn2)NC(=O)[C@H](Cc2c[nH]c3ccccc23)NC(=O)[C@H](CC(C)C)NC1=O [C] ({FITC-AEEA}-KKQAQRKRHKLNRKERGHKSPSEQRRS[S5]LWH[S5]R-NH2; staple 28-32)	63.6%	2.8%	7.6%	28.4%	1.3 h
CC(C)C[C@H](NC(=O)[C@]1(C)CCCC=CCCC[C@](C)(NC(=O)[C@H](CCC(=O)O)NC(=O)[C@H](CO)NC(=O)[C@@H]2CCCN2C(=O)[C@H](CO)NC(=O)[C@H](CCCCN)NC(=O)[C@H](Cc2c[nH]cn2)NC(=O)CNC(=O)[C@H](CCCNC(=N)N)NC(=O)[C@H](CCC(=O)O)NC(=O)[C@H](CCCCN)NC(=O)[C@H](CCCNC(=N)N)NC(=O)[C@H](CC(N)=O)NC(=O)[C@]2(C)CCCC=CCCC[C@](C)(NC(=O)[C@H](CCCNC(=N)N)NC(=O)[C@H](CCC(N)=O)NC(=O)[C@H](C)NC(=O)[C@H](CCC(N)=O)NC(=O)[C@H](CCCCN)NC(=O)[C@H](CCCCN)NC(=O)COCCOCCNC(=S)Nc3ccc4c(c3)C(=O)OC43c4ccc(O)cc4Oc4cc(O)ccc43)C(=O)N[C@@H](CCCNC(=N)N)C(=O)N[C@@H](Cc3c[nH]cn3)C(=O)N[C@@H](CCCCN)C(=O)N2)C(=O)N[C@@H](CCCNC(=N)N)C(=O)N[C@@H](CCCNC(=N)N)C(=O)N[C@@H](CO)C(=O)N1)C(=O)N[C@@H](Cc1c[nH]c2ccccc12)C(=O)N[C@@H](Cc1c[nH]cn1)C(=O)N[C@@H](C)C(=O)N[C@@H](CCCNC(=N)N)C(N)=O [B2] ({FITC-AEEA}-KKQAQR[S5]RHK[S5]NRKERGHKSPSE[S5]RRS[S5]LWHAR-NH2; staple 7-11, 24-28)	12.5%	2.4%	10.3%	82.2%	8.93 h
CC(C)C[C@@H]1NC(=O)[C@@](C)(NC(=O)[C@H](CO)NC(=O)[C@H](CCCNC(=N)N)NC(=O)[C@H](CCCNC(=N)N)NC(=O)[C@H](CCC(N)=O)NC(=O)[C@H](CCC(=O)O)NC(=O)[C@H](CO)NC(=O)[C@@H]2CCCN2C(=O)[C@H](CO)NC(=O)[C@H](CCCCN)NC(=O)[C@H](Cc2c[nH]cn2)NC(=O)CNC(=O)[C@H](CCCNC(=N)N)NC(=O)[C@]2(C)CCCC=CCCC[C@](C)(NC(=O)[C@H](CCCCN)NC(=O)[C@H](Cc3c[nH]cn3)NC(=O)[C@H](CCCNC(=N)N)NC(=O)[C@H](CCCCN)NC(=O)[C@H](CCCNC(=N)N)NC(=O)[C@H](CCC(N)=O)NC(=O)[C@H](C)NC(=O)[C@H](CCC(N)=O)NC(=O)[C@H](CCCCN)NC(=O)[C@H](CCCCN)NC(=O)COCCOCCNC(=S)Nc3ccc4c(c3)C(=O)OC43c4ccc(O)cc4Oc4cc(O)ccc43)C(=O)N[C@@H](CC(N)=O)C(=O)N[C@@H](CCCNC(=N)N)C(=O)N[C@@H](CCCCN)C(=O)N2)CCCC=CCCC[C@@](C)(C(=O)N[C@@H](CCCNC(=N)N)C(N)=O)NC(=O)[C@H](Cc2c[nH]cn2)NC(=O)[C@H](Cc2c[nH]c3ccccc23)NC1=O [C3] ({FITC-AEEA}-KKQAQRKRHK[S5]NRK[S5]RGHKSPSEQRRS[S5]LWH[S5]R-NH2; staple 11-15, 28-32)	37.0%	4.3%	6.2%	59.3%	5.05 h
